Earlier results, collected in US20230175068A1, “PROGNOSIS METHOD OF ACUTE MYELOID LEUKAEMIA” (CENTRE NATIONAL DE LA RECHERCHE SCIENTIFIQUE, priority 2020, published 2023).
Read-outs that look alike come from different tables or passages of the source.

Tested on: AML cell lines

SMILES	T-Statistic (Drug sensitivity AUC (Sanger GDSC1))	T-Statistic (Drug sensitivity AUC (Sanger GDSC2))
O=C(c1cc(Cc2n[nH]c(=O)c3ccccc23)ccc1F)N1CCN(C(=O)C2CC2)CC1 [Olaparib]	-3.795	–
O=C1NC(=O)c2c1c(-c1ccccc1Cl)cc1[nH]c3ccc(O)cc3c21 [Wee1 Inhibitor]	–	-4.966
